One assay has as its system C. trachomatis serovar K. The assay can be described thus: Infection of delta tocotrienol-pretreated cell lines (J774A.1, MCF-7, TMX2-28, Hep-2, JY), immunofluorescence with microscopy or flow cytometry. Type of assay: cell-based, Chlamydia trachomatis. To be noted: 10-30 μmol/L for 6 hours prior to infection. The protocol:
Delta tocotrienol is a vitamin E compound also available as dietary supplement. […] Since Chlamydia species enter cells via cholesterol-rich lipid raft domains involved in cholesterol trafficking, tocotrienols in general and hypocholesterolemic delta tocotrienol in particular will reduce infection by Chlamydia. Mouse macrophages (J774A.1), human mammary tumor cells (MCF-7, TMX2-28), human epithelial cells (Hep-2), and human B-lymphocytes (JY) were incubated with delta tocotrienol at concentrations of 10-30 μmol/L for 6 hours prior to infection by C. trachomatis serovar K, a subspecies of Chlamydia that is the primary cause of bacteria-initiated STD. Infections were detected by immunofluorescence staining followed by either microscopy or quantitative flow cytometric analysis. Infection levels in cells pretreated with delta-tocotrienol were decreased by >50%, with concomitant aberrant pathogen development observed with confocal microscopy. The number of large and small inclusions in the delta tocotrienol-versus-control cells was decreased by 3- and 2-fold, respectively. […] The impact of dietary delta tocotrienol on Chlamydia infection in hyperlipidemic patients is being examined in a clinical study. Cholesterol-suppressive delta tocotrienol may have the potential to reduce Chlamydia infection in humans.
In general terms: In flow cytometry, cells or beads pass a laser one at a time.

The next assay relates to LDL. The assay can be described thus: LDL levels in hyperlipidemic patients before and after delta-tocotrienol supplementation. Type of assay: in vivo, human. The protocol:
In a clinical study, buffy coats from blood samples drawn both before and after delta-tocotrienol supplementation were immunostained for detection of Chlamydia-infected cells. The samples were tested for LDL levels both before and after delta-tocotrienol supplementation.

Another assay relates to Chlamydia. Kind of assay: Chlamydia-infected human mammary tumor cells (TMX2-28) treated with delta tocotrienol. Type of assay: cell-based. On the procedure: FIG. 7 illustrates Chlamydia-infected human mammary tumor cells treated with delta tocotrienol (630× magnification). Human mammary tumor cells (TMX2-28) were infected with Chlamydia for 72 hours and treated with a 15 μmol/L concentration of delta tocotrienol (FIG. 7A). Controls were left untreated (FIG. 7B).

Assay [1] has as its target T1, 3-hydroxy-3-methylglutaryl coenzyme A (HMG-CoA) reductase (Homo sapiens, UniProt P04035).
T1 sequence (P04035 1-888): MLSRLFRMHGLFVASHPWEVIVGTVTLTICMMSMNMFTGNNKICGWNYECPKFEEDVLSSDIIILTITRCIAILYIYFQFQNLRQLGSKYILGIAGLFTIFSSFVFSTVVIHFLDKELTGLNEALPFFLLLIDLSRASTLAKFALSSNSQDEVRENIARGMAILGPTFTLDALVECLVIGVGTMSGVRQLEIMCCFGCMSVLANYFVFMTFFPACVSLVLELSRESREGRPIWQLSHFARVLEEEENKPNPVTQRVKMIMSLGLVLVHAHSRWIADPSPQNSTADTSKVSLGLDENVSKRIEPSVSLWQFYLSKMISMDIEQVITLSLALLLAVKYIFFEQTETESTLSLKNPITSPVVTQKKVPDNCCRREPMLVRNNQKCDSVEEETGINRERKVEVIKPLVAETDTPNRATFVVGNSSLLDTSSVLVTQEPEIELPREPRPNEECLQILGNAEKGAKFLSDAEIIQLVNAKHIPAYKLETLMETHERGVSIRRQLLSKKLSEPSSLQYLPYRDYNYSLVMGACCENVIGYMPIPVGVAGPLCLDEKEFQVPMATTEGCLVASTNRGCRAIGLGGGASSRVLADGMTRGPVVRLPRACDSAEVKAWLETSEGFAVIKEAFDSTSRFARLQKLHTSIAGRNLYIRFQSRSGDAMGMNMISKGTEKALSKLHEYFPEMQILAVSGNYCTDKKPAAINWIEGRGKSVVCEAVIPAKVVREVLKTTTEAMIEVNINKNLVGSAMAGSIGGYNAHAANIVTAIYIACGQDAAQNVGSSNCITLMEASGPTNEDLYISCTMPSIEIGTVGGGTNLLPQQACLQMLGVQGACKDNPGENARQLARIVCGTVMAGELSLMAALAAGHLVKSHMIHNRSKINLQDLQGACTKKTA
As to conditions: delta>gamma>beta>alpha tocotrienol (Tan, 2005); cited from earlier work.

Bounds are passed on as bounds.

Regarding delta tocotrienol, in the assay with C. trachomatis serovar K, the “decrease in number of large inclusions versus control cells” value is given as 3 fold. For the same substance, the “decrease in number of small inclusions versus control cells” value with C. trachomatis serovar K is 2 fold. In addition, in the assay on C. trachomatis serovar K, the “decrease of infection levels in pretreated cells” value is more than 50%. The “% Decrease in LDL” value was 20% with LDL (Patient 1 (Chlamydia negative before supplementation)), 7% with LDL (Patient 2 (Chlamydia positive before supplementation)) and 25% in the assay on LDL (Patient 3 (Chlamydia strong positive before supplementation)). For the same substance, in the assay on Chlamydia, the “apoptosis of Chlamydia-infected, tocotrienol-treated cancer cells” value is listed as “did not appear to become apoptotic”. Also, in the assay with Chlamydia (15 μmol/L, infected 72 hours, untreated >20 μm), the “inclusion size in tocotrienol treated mammary tumor cells” value is recorded as 10-15 μm. Further, the “potency of cholesterol inhibition among tocotrienol isomers” value in assay [1] was “most potent isomer”.

Values taken from patent US20060241174A1, “Vitamin E tocotrienols inhibition of intracellularly obligate pathogen Chlamydia and methods of use” (priority 2005, published 2006).
